Assay results published in patent publication US20050171116A1, “Enhancing the efficacy of tubercular drugs” (priority 2004, published 2005).

Experiments:
Type in all cases: cell-based, Mycobacterium Tuberculosis
Conditions in all cases: LJ medium, in vitro
[1] = tested on: Isoniazid-Resistant strains of MTB
[2] = tested on: Multi-Drug-Resistant strains of MTB
[3] = tested on: Rifampicin-resistant strains of MTB

Measured: antibacterial efficacy

Cc1c(C)c2c(c(C)c1O)CC[C@@](C)(CCC[C@H](C)CCC[C@H](C)CCCC(C)C)O2 [Factor Alpha tx, α-tocopherol]
effective: all assays above
